Experimental data reported in publication PMC7544826 (Communications Biology, 2020).

Experiments:
[1] = test system: Wnt3a-dependent TCF/LEF activation; experiment: TOP-FLASH luciferase assay without the addition of Notum (control); type: cell-based; details: concentrations up to 1 mM, no Notum added
Method: . OPTS is a common lipase substrate with an octanoyl lipid linked to a fluorescent moiety. It is not a natural Notum substrate; however, it can be used to quantify the enzymatic activity of purified Notum protein[23],[25],[28]. […]. […]. […]. The stable HEK293 STF cell line[31] carrying the Super Top Flash firefly luciferase reporter was split into 96-well plates and transfected 24 h later with a constitutive Renilla luciferase plasmid (pRL-TK, Promega) at 20 ng DNA per well using Lipofectamine 2000 (Life Technologies, UK). The media were replaced with test media 16 h later. […] The firefly and Renilla luciferase activities were measured 24 h later with Dual-Glo luciferase reporter assay system (Promega, Madison, WI) using an Ascent Lunimoskan luminometer (Labsystems). The firefly luciferase activity was normalized to Renilla luciferase activity (relative light unit, RLU). Luciferase reporter assays were performed in triplicate.
Supplementary Figure 1. […].

[2] = in vivo; cited from earlier work
[3] = molecular target: T1, Notum (Homo sapiens, UniProt Q6P988, C330S); experiment: Thermal shift assay (SYPRO Orange) of Notum; details: for Thermoflour melting curve fluorescence of Notum: Fig 2c
T1 sequence (Q6P988 81-451 C330S): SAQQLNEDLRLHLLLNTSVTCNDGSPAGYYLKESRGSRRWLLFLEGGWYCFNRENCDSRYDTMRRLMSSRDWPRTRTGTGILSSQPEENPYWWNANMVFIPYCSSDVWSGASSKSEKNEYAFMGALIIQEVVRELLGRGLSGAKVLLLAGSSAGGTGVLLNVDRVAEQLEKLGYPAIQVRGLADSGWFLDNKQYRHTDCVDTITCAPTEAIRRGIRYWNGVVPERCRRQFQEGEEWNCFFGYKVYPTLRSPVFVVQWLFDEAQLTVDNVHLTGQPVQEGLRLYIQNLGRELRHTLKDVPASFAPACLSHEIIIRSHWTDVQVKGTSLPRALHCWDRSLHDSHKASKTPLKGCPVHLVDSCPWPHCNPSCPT
Method: Reference wells, i.e. solutions without compounds were used to compare the melting temperature (Tm). The experiments were performed in triplicate.

[4] = molecular target: T1, Notum; experiment: SPR equilibrium binding to biotinylated Notum on streptavidin chip; set-up: The human Notum enzyme core comprising amino acids S81–T451 with a C330S mutation; made in house; dialyzed conditioned medium used without purification; details: Fig 2a

## Cn1c(=O)c2c(ncn2C)n(C)c1=O [caffeine, 1,3,7-trimethylxanthine]
[1]
  Effect on Wnt3a-induced luciferase activity without Notum: did not affect luciferase activity
[2]
  Plasma concentration at therapeutic use: ≤ 150 µM
[3]
  Melting temperature (Tm) of Notum: 66.4 °C
[3]; 2-fold dilution series 1-1000 µM, dose-dependent
  Concentration from which the Tm of Notum starts to increase: 32 µM
[3]; compound 500 µM, Temperature 24.5
  Thermoflour melting curve fluorescence of Notum: 709.927
[3]; compound 500 µM, Temperature 25.5
  Thermoflour melting curve fluorescence of Notum: 611.276
[3]; compound 500 µM, Temperature 26.5
  Thermoflour melting curve fluorescence of Notum: 506.395
[3]; compound 500 µM, Temperature 27.5
  Thermoflour melting curve fluorescence of Notum: 407.771
[3]; compound 500 µM, Temperature 28.5
  Thermoflour melting curve fluorescence of Notum: 329.046
[3]; compound 500 µM, Temperature 29.5
  Thermoflour melting curve fluorescence of Notum: 252.252
[3]; compound 500 µM, Temperature 30.5
  Thermoflour melting curve fluorescence of Notum: 185.878
[3]; compound 500 µM, Temperature 31.5
  Thermoflour melting curve fluorescence of Notum: 116.312
[3]; compound 500 µM, Temperature 32.5
  Thermoflour melting curve fluorescence of Notum: 36.8288
[3]; compound 500 µM, Temperature 33.5
  Thermoflour melting curve fluorescence of Notum: -33.9223
[3]; compound 500 µM, Temperature 34.5
  Thermoflour melting curve fluorescence of Notum: -98.3184
[3]; compound 500 µM, Temperature 35.5
  Thermoflour melting curve fluorescence of Notum: -160.078
[3]; compound 500 µM, Temperature 36.5
  Thermoflour melting curve fluorescence of Notum: -227.439
[3]; compound 500 µM, Temperature 37.5
  Thermoflour melting curve fluorescence of Notum: -299.113
[3]; compound 500 µM, Temperature 38.5
  Thermoflour melting curve fluorescence of Notum: -356.595
[3]; compound 500 µM, Temperature 39.5
  Thermoflour melting curve fluorescence of Notum: -384.234
[3]; compound 500 µM, Temperature 40.5
  Thermoflour melting curve fluorescence of Notum: -401.667
[3]; compound 500 µM, Temperature 41.5
  Thermoflour melting curve fluorescence of Notum: -422.587
[3]; compound 500 µM, Temperature 42.5
  Thermoflour melting curve fluorescence of Notum: -436.447
[3]; compound 500 µM, Temperature 43.5
  Thermoflour melting curve fluorescence of Notum: -433.953
[3]; compound 500 µM, Temperature 44.5
  Thermoflour melting curve fluorescence of Notum: -407.23
[3]; compound 500 µM, Temperature 45.5
  Thermoflour melting curve fluorescence of Notum: -370.506
[3]; compound 500 µM, Temperature 46.5
  Thermoflour melting curve fluorescence of Notum: -329.743
[3]; compound 500 µM, Temperature 47.5
  Thermoflour melting curve fluorescence of Notum: -279.561
[3]; compound 500 µM, Temperature 48.5
  Thermoflour melting curve fluorescence of Notum: -224.386
[3]; compound 500 µM, Temperature 49.5
  Thermoflour melting curve fluorescence of Notum: -154.955
[3]; compound 500 µM, Temperature 50.5
  Thermoflour melting curve fluorescence of Notum: -68.5872
[3]; compound 500 µM, Temperature 51.5
  Thermoflour melting curve fluorescence of Notum: 21.0565
[3]; compound 500 µM, Temperature 52.5
  Thermoflour melting curve fluorescence of Notum: 104.977
[3]; compound 500 µM, Temperature 53.5
  Thermoflour melting curve fluorescence of Notum: 203.138
[3]; compound 500 µM, Temperature 54.5
  Thermoflour melting curve fluorescence of Notum: 335.417
[3]; compound 500 µM, Temperature 55.5
  Thermoflour melting curve fluorescence of Notum: 489.845
[3]; compound 500 µM, Temperature 56.5
  Thermoflour melting curve fluorescence of Notum: 650.176
[3]; compound 500 µM, Temperature 57.5
  Thermoflour melting curve fluorescence of Notum: 838.955
[3]; compound 500 µM, Temperature 58.5
  Thermoflour melting curve fluorescence of Notum: 1115.22
[3]; compound 500 µM, Temperature 59.5
  Thermoflour melting curve fluorescence of Notum: 1497.71
[3]; compound 500 µM, Temperature 60.5
  Thermoflour melting curve fluorescence of Notum: 2046.51
[3]; compound 500 µM, Temperature 61.5
  Thermoflour melting curve fluorescence of Notum: 2842.67
[3]; compound 500 µM, Temperature 62.5
  Thermoflour melting curve fluorescence of Notum: 4016.35
[3]; compound 500 µM, Temperature 63.5
  Thermoflour melting curve fluorescence of Notum: 5616.14
[3]; compound 500 µM, Temperature 64.5
  Thermoflour melting curve fluorescence of Notum: 7625.37
[3]; compound 500 µM, Temperature 65.5
  Thermoflour melting curve fluorescence of Notum: 9844.37
[3]; compound 500 µM, Temperature 66.5
  Thermoflour melting curve fluorescence of Notum: 11980.7
[3]; compound 500 µM, Temperature 67.5
  Thermoflour melting curve fluorescence of Notum: 13878
[3]; compound 500 µM, Temperature 68.5
  Thermoflour melting curve fluorescence of Notum: 15429.9
[3]; compound 500 µM, Temperature 69.5
  Thermoflour melting curve fluorescence of Notum: 16655.6
[3]; compound 500 µM, Temperature 70.5
  Thermoflour melting curve fluorescence of Notum: 17623.3
[3]; compound 500 µM, Temperature 71.5
  Thermoflour melting curve fluorescence of Notum: 18396.4
[3]; compound 500 µM, Temperature 72.5
  Thermoflour melting curve fluorescence of Notum: 18998.9
[3]; compound 500 µM, Temperature 73.5
  Thermoflour melting curve fluorescence of Notum: 19494.1
[3]; compound 500 µM, Temperature 74.5
  Thermoflour melting curve fluorescence of Notum: 19890
[3]; compound 500 µM, Temperature 75.5
  Thermoflour melting curve fluorescence of Notum: 20222.9
[3]; compound 500 µM, Temperature 76.5
  Thermoflour melting curve fluorescence of Notum: 20511.4
[3]; compound 500 µM, Temperature 77.5
  Thermoflour melting curve fluorescence of Notum: 20720.5
[3]; compound 500 µM, Temperature 78.5
  Thermoflour melting curve fluorescence of Notum: 20881
[3]; compound 500 µM, Temperature 79.5
  Thermoflour melting curve fluorescence of Notum: 21035.4
[3]; compound 500 µM, Temperature 80.5
  Thermoflour melting curve fluorescence of Notum: 21171.7
[3]; compound 500 µM, Temperature 81.5
  Thermoflour melting curve fluorescence of Notum: 21266.6
[3]; compound 500 µM, Temperature 82.5
  Thermoflour melting curve fluorescence of Notum: 21332.1
[3]; compound 500 µM, Temperature 83.5
  Thermoflour melting curve fluorescence of Notum: 21375.7
[3]; compound 500 µM, Temperature 84.5
  Thermoflour melting curve fluorescence of Notum: 21418.3
[3]; compound 500 µM, Temperature 85.5
  Thermoflour melting curve fluorescence of Notum: 21484.5
[3]; compound 500 µM, Temperature 86.5
  Thermoflour melting curve fluorescence of Notum: 21557.9
[3]; compound 500 µM, Temperature 87.5
  Thermoflour melting curve fluorescence of Notum: 21630
[3]; compound 500 µM, Temperature 88.5
  Thermoflour melting curve fluorescence of Notum: 21668.9
[3]; compound 500 µM, Temperature 89.5
  Thermoflour melting curve fluorescence of Notum: 21631
[3]; compound 500 µM, Temperature 90.5
  Thermoflour melting curve fluorescence of Notum: 21594.2
[3]; compound 500 µM, Temperature 91.5
  Thermoflour melting curve fluorescence of Notum: 21585.2
[3]; compound 500 µM, Temperature 92.5
  Thermoflour melting curve fluorescence of Notum: 21573.1
[3]; compound 500 µM, Temperature 93.5
  Thermoflour melting curve fluorescence of Notum: 21559.5
[3]; compound 500 µM, Temperature 94.5
  Thermoflour melting curve fluorescence of Notum: 21527.2
[3]; compound 500 µM, Temperature 95.5
  Thermoflour melting curve fluorescence of Notum: 21485.4
[3]; compound 500 µM, Temperature 96.5
  Thermoflour melting curve fluorescence of Notum: 21486.2
[3]; compound 500 µM, Temperature 97.5
  Thermoflour melting curve fluorescence of Notum: 21505.1
[3]; compound 500 µM, versus Notum without compounds
  ∆Tm of Notum: 2.8 °C
[4]; caffeine conc. 2.861e-8 (unit not given)
  SPR Response: 1.14
[4]; caffeine conc. 5.722e-8 (unit not given)
  SPR Response: 2.29
[4]; caffeine conc. 1.144e-7 (unit not given)
  SPR Response: 3.61
[4]; caffeine conc. 2.289e-7 (unit not given)
  SPR Response: 4.16
[4]; caffeine conc. 4.578e-7 (unit not given)
  SPR Response: 4.74
[4]; caffeine conc. 9.155e-7 (unit not given)
  SPR Response: 5.58
[4]; caffeine conc. 1.831e-6 (unit not given)
  SPR Response: 6.88
[4]; caffeine conc. 3.662e-6 (unit not given)
  SPR Response: 9.64
[4]; caffeine conc. 7.324e-6 (unit not given)
  SPR Response: 12.15
[4]; caffeine conc. 1.465e-5 (unit not given)
  SPR Response: 16.8
[4]; caffeine conc. 2.93e-5 (unit not given)
  SPR Response: 23.59
[4]; caffeine conc. 5.859e-5 (unit not given)
  SPR Response: 31.69
[4]; caffeine conc. 0.0001172 (unit not given)
  SPR Response: 41.28
[4]; caffeine conc. 0.0002344 (unit not given)
  SPR Response: 50.77
[4]; caffeine conc. 0.0004687 (unit not given)
  SPR Response: 61.29
[4]; caffeine conc. 0.0009375 (unit not given)
  SPR Response: 71.68
[4]; caffeine conc. 0.001875 (unit not given)
  SPR Response: 81.69
